What was measured:
[1] = molecular target: T1, glutathione S-transferase (GST)-fused full-length human Syk protein (Homo sapiens, UniProt P43405); assay: Syk enzyme assay; assay type: biochemical; conditions: Syk enzyme assay, Test Example 1; read-out: IC50 of Syk-inhibitory activity
T1 construct: (GST)-fused full-length human Syk protein; GST (glutathione S-transferase); purchased Carna Biosciences
Summary of the method: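 IC50 values come from a time-resolved FRET readout (615 and 665 nm) of substrate phosphorylation, measured after an EDTA stop and 1 h antibody binding. The kinase reaction ran 40 min at room temperature with 27 μM ATP and 0.4 μM biotin-peptide, following a 15 min compound preincubation with baculovirus-made GST-full-length human Syk.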

THP-1 cells = assay: TNFα generation assay; assay type: cell-based, human; conditions: Homo sapiens, THP-1, THP-1 cells; Table 22; read-out: IC50 in TNFα generation assay
Summary of the method: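 Secreted TNFα in supernatant quantified by ELISA or AlphaLISA after 7 h culture on human IgG-coated wells (10 μg/ml coating). Cells were IFN-γ-differentiated THP-1 (10 ng/ml, 2 days), exposed to compound for 30 min at room temperature before plating.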

Cc1ncc(Nc2nc(N[C@H](CC3CC3)[C@H](C)N)c(F)cc2C(N)=O)cc1-n1nccn1 [Example 006-374, 6-(((2R,3S)-3-amino-1-cyclopropylbutan-2-yl)amino)-5-fluoro-2-((6-methyl-5-(2H-1,2,3-triazol-2-yl)pyridin-3-yl)amino)nicotinamide]
IC50 [1]: 10 to 50 nM | IC50 (THP-1 cells): 130 to 200 nM

CC[C@H](N)[C@@H](CC)Nc1nc(Nc2cncc(C3CC3)c2)c(C(N)=O)cc1F [Example 006-378, 6-(((3R,4S)-4-aminohexan-3-yl)amino)-2-((5-cyclopropylpyridin-3-yl)amino)-5-fluoronicotinamide]
IC50 [1]: < 10 nM | IC50 (THP-1 cells): 65 to 130 nM

CC[C@H](N)[C@@H](CC)Nc1nc(Nc2cc(OC)nc(OC)c2)c(C(N)=O)cc1F [Example 006-379, 6-(((3R,4S)-4-aminohexan-3-yl)amino)-2-((2,6-dimethoxypyridin-4-yl)amino)-5-fluoronicotinamide]
IC50 [1]: < 10 nM | IC50 (THP-1 cells): 130 to 200 nM

CC[C@H](N)[C@@H](CC)Nc1nc(Nc2cnc(C)c(-n3nccn3)c2)c(C(N)=O)cc1F [Example 006-380, 6-(((3R,4S)-4-aminohexan-3-yl)amino)-5-fluoro-2-((6-methyl-5-(2H-1,2,3-triazol-2-yl)pyridin-3-yl)amino)nicotinamide]
IC50 [1]: 10 to 50 nM | IC50 (THP-1 cells): 65 to 130 nM

CC[C@H](N)[C@@H](CC)Nc1nc(Nc2ccnc(OC)c2)c(C(N)=O)cc1F [Example 006-381, 6-(((3R,4S)-4-aminohexan-3-yl)amino)-5-fluoro-2-((2-methoxypyridin-4-yl)amino)nicotinamide]
IC50 [1]: 10 to 50 nM | IC50 (THP-1 cells): 65 to 130 nM

COCCn1ncc2cc(Nc3nc(N[C@H](CC(C)C)[C@H](C)N)c(F)cc3C(N)=O)ccc21 [Example 006-385, 6-(((2S,3R)-2-amino-5-methylhexan-3-yl)amino)-5-fluoro-2-((1-(2-methoxyethyl)-1H-indazol-5-yl)amino)nicotinamide]
IC50 [1]: < 10 nM | IC50 (THP-1 cells): 65 to 130 nM

Cc1ncc(Nc2nc(N[C@H](CC(C)C)[C@H](C)N)c(F)cc2C(N)=O)cc1-n1nccn1 [Example 006-386, 6-(((2S,3R)-2-amino-5-methylhexan-3-yl)amino)-5-fluoro-2-((6-methyl-5-(2H-1,2,3-triazol-2-yl)pyridin-3-yl)amino)nicotinamide]
IC50 [1]: < 10 nM | IC50 (THP-1 cells): < 65 nM

CCCC[C@@H](Nc1nc(Nc2ccc3c(cnn3C)c2)c(C(N)=O)cc1F)[C@H](C)N [Example 006-387, 6-(((2S,3R)-2-aminoheptane-3-yl)amino)-5-fluoro-2-((1-methyl-1H-indazol-5-yl)amino)nicotinamide]
IC50 [1]: < 10 nM | IC50 (THP-1 cells): 65 to 130 nM

CCCC[C@@H](Nc1nc(Nc2ccc3c(cnn3CC)c2)c(C(N)=O)cc1F)[C@H](C)N [Example 006-388, 6-(((2S,3R)-2-aminoheptane-3-yl)amino)-2-((1-ethyl-1H-indazol-5-yl)amino)-5-fluoronicotinamide]
IC50 [1]: < 10 nM | IC50 (THP-1 cells): 65 to 130 nM

CCCC[C@@H](Nc1nc(Nc2ccc3c(cnn3CCOC)c2)c(C(N)=O)cc1F)[C@H](C)N [Example 006-389, 6-(((2S,3R)-2-aminoheptane-3-yl)amino)-5-fluoro-2-((1-(2-methoxyethyl)-1H-indazol-5-yl)amino)nicotinamide]
IC50 [1]: < 10 nM | IC50 (THP-1 cells): 65 to 130 nM

CCCC[C@@H](Nc1nc(Nc2cnc(C)c(-n3nccn3)c2)c(C(N)=O)cc1F)[C@H](C)N [Example 006-390, 6-(((2S,3R)-2-aminoheptan-3-yl)amino)-5-fluoro-2-((6-methyl-5-(2H-1,2,3-triazol-2-yl)pyridin-3-yl)amino)nicotinamide]
IC50 [1]: < 10 nM | IC50 (THP-1 cells): 65 to 130 nM

C[C@H](N)[C@@H](CC1CC1)Nc1nc(Nc2cncc(-n3cccn3)c2)c(C(N)=O)cc1F [Example 006-392, 2-((5-(1H-pyrazol-1-yl)pyridin-3-yl)amino)-6-(((2R,3S)-3-amino-1-cyclopropylbutan-2-yl)amino)-5-fluoronicotinamide]
IC50 [1]: < 10 nM | IC50 (THP-1 cells): 65 to 130 nM

COCCOc1cc(Nc2nc(N[C@H](CC3CC3)[C@H](C)N)c(F)cc2C(N)=O)ccn1 [Example 006-394, 6-(((2R,3S)-3-amino-1-cyclopropylbutan-2-yl)amino)-5-fluoro-2-((2-(2-methoxyethoxy)pyridin-4-yl)amino)nicotinamide]
IC50 [1]: < 10 nM | IC50 (THP-1 cells): 65 to 130 nM

C=C(C)C[C@@H](Nc1nc(Nc2ccc3ncccc3c2)c(C(N)=O)cc1F)[C@H](C)N [Example 006-396, 6-(((2S,3R)-2-amino-5-methylhex-5-en-3-yl)amino)-5-fluoro-2-(quinolin-6-ylamino)nicotinamide]
IC50 [1]: < 10 nM | IC50 (THP-1 cells): 65 to 130 nM

C=C(C)C[C@@H](Nc1nc(Nc2ccc3c(cnn3CC)c2)c(C(N)=O)cc1F)[C@H](C)N [Example 006-397, 6-(((2S,3R)-2-amino-5-methylhex-5-en-3-yl)amino)-2-((1-ethyl-1H-indazol-5-yl)amino)-5-fluoronicotinamide]
IC50 [1]: < 10 nM | IC50 (THP-1 cells): < 65 nM

CCC[C@@H](Nc1nc(Nc2ccc3c(cnn3C)c2)c(C(N)=O)cc1F)[C@@H](N)CC [Example 006-398, 6-(((3S,4R)-3-aminoheptan-4-yl)amino)-5-fluoro-2-((1-methyl-1H-indazol-5-yl)amino)nicotinamide]
IC50 [1]: < 10 nM | IC50 (THP-1 cells): 65 to 130 nM

CCC[C@@H](Nc1nc(Nc2ccc3c(cnn3CCOC)c2)c(C(N)=O)cc1F)[C@@H](N)CC [Example 006-400, 6-(((3S,4R)-3-aminoheptan-4-yl)amino)-5-fluoro-2-((1-(2-methoxyethyl)-1H-indazol-5-yl)amino)nicotinamide]
IC50 [1]: < 10 nM | IC50 (THP-1 cells): < 65 nM

CCC[C@@H](Nc1nc(Nc2ccnc(OCCOC)c2)c(C(N)=O)cc1F)[C@@H](N)CC [Example 006-401, 6-(((3S,4R)-3-aminoheptan-4-yl)amino)-5-fluoro-2-((2-(2-methoxyethoxy)pyridin-4-yl)amino)nicotinamide]
IC50 [1]: 10 to 50 nM | IC50 (THP-1 cells): 130 to 200 nM

CCC[C@@H](Nc1nc(Nc2cncc(C3CC3)c2)c(C(N)=O)cc1F)[C@@H](N)CC [Example 006-402, 6-(((3S,4R)-3-aminoheptan-4-yl)amino)-2-((5-cyclopropylpyridin-3-yl)amino)-5-fluoronicotinamide]
IC50 [1]: < 10 nM | IC50 (THP-1 cells): 130 to 200 nM

CCC[C@@H](Nc1nc(Nc2cnc(C)c(-n3nccn3)c2)c(C(N)=O)cc1F)[C@@H](N)CC [Example 006-403, 6-(((3S,4R)-3-aminoheptan-4-yl)amino)-5-fluoro-2-((6-methyl-5-(2H-1,2,3-triazol-2-yl)pyridin-3-yl)amino)nicotinamide]
IC50 [1]: 10 to 50 nM | IC50 (THP-1 cells): 130 to 200 nM

CCC[C@@H](Nc1nc(Nc2ccnc(OC)c2)c(C(N)=O)cc1F)[C@@H](N)CC [Example 006-404, 6-(((3S,4R)-3-aminoheptan-4-yl)amino)-5-fluoro-2-((2-methoxypyridin-4-yl)amino)nicotinamide]
IC50 [1]: < 10 nM | IC50 (THP-1 cells): 130 to 200 nM

CCCC[C@@H](Nc1nc(Nc2cc(OC)nc(OC)c2)c(C(N)=O)cc1F)[C@H](C)N [Example 006-405, 6-(((2S,3R)-2-aminoheptan-3-yl)amino)-2-((2,6-dimethoxypyridin-4-yl)amino)-5-fluoronicotinamide]
IC50 [1]: < 10 nM | IC50 (THP-1 cells): 130 to 200 nM

CCCC[C@@H](Nc1nc(Nc2ccnc(OC)c2)c(C(N)=O)cc1F)[C@H](C)N [Example 006-406, 6-(((2S,3R)-2-aminoheptan-3-yl)amino)-5-fluoro-2-((2-methoxypyridin-4-yl)amino)nicotinamide]
IC50 [1]: < 10 nM | IC50 (THP-1 cells): 65 to 130 nM

CCCC[C@@H](Nc1nc(Nc2ccnc(OCCOC)c2)c(C(N)=O)cc1F)[C@H](C)N [Example 006-407, 6-(((2S,3R)-2-aminoheptan-3-yl)amino)-5-fluoro-2-((2-(2-methoxyethoxy)pyridin-4-yl)amino)nicotinamide]
IC50 [1]: < 10 nM | IC50 (THP-1 cells): 130 to 200 nM

CCCC[C@@H](Nc1nc(Nc2cncc(C3CC3)c2)c(C(N)=O)cc1F)[C@H](C)N [Example 006-408, 6-(((2S,3R)-2-aminoheptan-3-yl)amino)-2-((5-cyclopropylpyridin-3-yl)amino)-5-fluoronicotinamide]
IC50 [1]: < 10 nM | IC50 (THP-1 cells): 130 to 200 nM

COc1cc(Nc2nc(N[C@H](CC(C)C)[C@H](C)N)c(F)cc2C(N)=O)cc(OC)n1 [Example 006-409, 6-(((2S,3R)-2-amino-5-methylhexan-3-yl)amino)-2-((2,6-dimethoxypyridin-4-yl)amino)-5-fluoronicotinamide]
IC50 [1]: < 10 nM | IC50 (THP-1 cells): 130 to 200 nM

COc1cc(Nc2nc(N[C@H](CC(C)C)[C@H](C)N)c(F)cc2C(N)=O)ccn1 [Example 006-410, 6-(((2S,3R)-2-amino-5-methylhexan-3-yl)amino)-5-fluoro-2-((2-methoxypyridin-4-yl)amino)nicotinamide]
IC50 [1]: < 10 nM | IC50 (THP-1 cells): 65 to 130 nM

COCCOc1cc(Nc2nc(N[C@H](CC(C)C)[C@H](C)N)c(F)cc2C(N)=O)ccn1 [Example 006-411, 6-(((2S,3R)-2-amino-5-methylhexan-3-yl)amino)-5-fluoro-2-((2-(2-methoxyethoxy)pyridin-4-yl)amino)nicotinamide]
IC50 [1]: < 10 nM | IC50 (THP-1 cells): 130 to 200 nM

CC(C)C[C@@H](Nc1nc(Nc2cncc(C3CC3)c2)c(C(N)=O)cc1F)[C@H](C)N [Example 006-412, 6-(((2S,3R)-2-amino-5-methylhexan-3-yl)amino)-2-((5-cyclopropylpyridin-3-yl)amino)-5-fluoronicotinamide]
IC50 [1]: < 10 nM | IC50 (THP-1 cells): 130 to 200 nM
